We go through eleven molecules from patent US20130109682A1, “CYCLIC ETHER COMPOUNDS USEFUL AS KINASE INHIBITORS” (NOVARTIS AG, priority 2010, published 2013).

The target in assay [1] is PIM2 (Homo sapiens, UniProt Q9P1W9). Briefly: KinaseGlo Pim2 ATP depletion assay. It counts as biochemical. Here is the method:
KinaseGlo Pim2 ATP Depletion Assay
The activity of PIM2 is measured using a luciferase-luciferin based ATP detection reagent to quantify ATP depletion resulting from kinase-catalyzed phosphoryl transfer to a peptide substrate. Compounds to be tested are dissolved in 100% DMSO and directly distributed into white 384-well plates at 0.5 piper well. To start the reaction, 10 μl of 10 nM Pim2 kinase and 20 μM BAD peptide (RSRHSSYPAGT-OH) in assay buffer (50 mM HEPES pH 7.5, 5 mM MgCl2, 1 mM DTT, 0.05% BSA) is added into each well. After 15 minutes, 10 μl of 8 μM ATP in assay buffer is added. Final assay concentrations are 5 nM PIM2, 4 μM ATP, 10 μM BAD peptide and 2.5% DMSO. The reaction is performed until approximately 50% of the ATP is depleted, then stopped with the addition of 20 μl KinaseGlo Plus (Promega Corporation) solution. The stopped reaction is incubated for 10 minutes and the remaining ATP detected via luminescence on the Victor2 (Perkin Elmer).
A general note: Kinase-Glo measures the ATP left after a reaction by luminescence.

In assay [2] the target is PIM3 (Homo sapiens, UniProt Q86V86). Briefly: KinaseGlo Pim3 ATP depletion assay. It counts as biochemical. Here is the method: KinaseGlo Pim3 ATP Depletion Assay
The activity of PIM3 is measured using a luciferase-luciferin based ATP detection reagent to quantify ATP depletion resulting from kinase-catalyzed phosphoryl transfer to a peptide substrate. Compounds to be tested are dissolved in 100% DMSO and directly distributed into white 384-well plates at 0.5 μl per well. To start the reaction, 10 μl of 10 nM Pim3 kinase and 200 μM BAD peptide (RSRHSSYPAGT-OH) in assay buffer (50 mM HEPES pH 7.5, 5 mM MgCl2, 1 mM DTT, 0.05% BSA) is added into each well. After 15 minutes, 10 μl of 80 μM ATP in assay buffer is added. Final assay concentrations are 5 nM […], 40 μM ATP, 100 μM BAD peptide and 2.5% DMSO. The reaction is performed until approximately 50% of the ATP is depleted, then stopped by the addition of 20 μl KinaseGlo Plus (Promega Corporation) solution. The stopped reaction is incubated for 10 minutes and the remaining ATP detected via luminescence on the Victor2 (Perkin Elmer).

Assay [3] deals with GSK3β (Homo sapiens, UniProt P49841). Briefly: GSK3β ATP depletion assay. It counts as biochemical. As to conditions: read-out: GSK3b IC50. On the procedure:
GSK3β ATP Depletion Assay
The activity of GSK3β is measured using a luciferase-luciferin based ATP detection reagent to quantify ATP depletion resulting from kinase-catalyzed phosphoryl transfer to a peptide substrate. Compounds to be tested are dissolved in 100% DMSO and directly distributed into white 384-well plates at 0.5 μl per well. To start the reaction, 10 μl of 10 nM GSK3B kinase and 20 μM biotinylated CREB peptide ([…](pS)YR-NH2) in assay buffer (50 mM TRIS pH 7.5, 15 mM MgCl2, 1 mM DTT, 0.1% BSA) is added into each well. After 15 minutes, 10 μl of 2 μM ATP in assay buffer is added. Final assay concentrations are 5 nM GSK3B, […], 10 μM b-CREB peptide and 2.5% DMSO. The reaction is performed until approximately 50% of the ATP is depleted, then stopped with the addition of 20 μl KinaseGlo (Promega Corporation) solution. The stopped reaction is incubated for 10 minutes and the remaining ATP is detected via luminescence on the Victor2 (Perkin Elmer).

Assay [4] has as its system KMS11 (human myeloma cell line). Briefly: Cell proliferation assay (CellTiter-Glo), KMS11. It counts as cell-based. As to conditions: Homo sapiens, KMS-11; KMS11-Luc cells. On the procedure:
KMS11 (human myeloma cell line), were cultured in IMDM supplemented with 10% FBS, sodium pyruvate and antibiotics. Cells were plated in the same medium at a density of 2000 cells per well into 96 well tissue culture plates, with outside wells vacant, on the day of assay. MMl.s (human myeloma cell line), were cultured in RPMI1640 supplemented with 10% FBS, sodium pyruvate and antibiotics. Cells were plated in the same medium at a density of 5000 cells per well into 96 well tissue culture plates, with outside wells vacant, on the day of assay.
Test compounds supplied in DMSO were diluted into DMSO at 500 times the desired final concentrations before dilution into culture media to 2 times final concentrations. Equal volumes of 2× compounds were added to the cells in 96 well plates and incubated at 37° C. for 3 days.
After 3 days plates were equilibrated to room temperature and equal volume of CellTiter-Glow Reagent (Promega) was added to the culture wells. The plates were agitated briefly and luminescent signal was measured with luminometer.
Using the procedures of Cell Proliferation Assay, the EC50 concentration of indicated compounds of the examples in were determined in KMS11 cells as shown in Table 4.
For orientation: In ATP-based viability assays light output follows the ATP content of the culture.

The target in assay [5] is PIM1 (Homo sapiens, UniProt P11309). Briefly: KinaseGlo Pim1 ATP depletion assay. It counts as biochemical. On the procedure: KinaseGlo Pim1 ATP Depletion Assay
Sequence of PIM1 (P11309 whole entry): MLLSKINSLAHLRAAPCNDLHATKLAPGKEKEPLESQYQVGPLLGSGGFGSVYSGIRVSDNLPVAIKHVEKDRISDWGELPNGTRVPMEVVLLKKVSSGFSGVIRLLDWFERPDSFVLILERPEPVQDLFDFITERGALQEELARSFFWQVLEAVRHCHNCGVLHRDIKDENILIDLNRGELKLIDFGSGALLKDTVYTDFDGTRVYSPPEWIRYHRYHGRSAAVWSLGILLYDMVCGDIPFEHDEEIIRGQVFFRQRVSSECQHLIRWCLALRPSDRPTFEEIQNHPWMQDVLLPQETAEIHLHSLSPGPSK
The activity of PIM1 is measured using a luciferase-luciferin based ATP detection reagent to quantify ATP depletion resulting from kinase-catalyzed phosphoryl transfer to a peptide substrate. Compounds to be tested are dissolved in 100% DMSO and directly distributed into white 384-well plates at 0.5 μA per well. To start the reaction, 10 μA of 5 nM Pim1 kinase and 80 μM BAD peptide (RSRHSSYPAGT-OH) in assay buffer (50 mM HEPES pH 7.5, 5 mM MgCl2, 1 mM DTT, 0.05% BSA) is added into each well. After 15 minutes, 10 μl of 40 μM ATP in assay buffer is added. Final assay concentrations are 2.5 nM PIM1, 20 μM ATP, 40 μM BAD peptide and 2.5% DMSO. The reaction is performed until approximately 50% of the ATP is depleted, then stopped with the addition of 20 μA KinaseGlo Plus (Promega Corporation) solution. The stopped reaction is incubated for 10 minutes and the remaining ATP detected via luminescence on the Victor2 (Perkin Elmer). […] IC50, the half maximal inhibitory concentration, represents the concentration of a test compound that is required for 50% inhibition of its target in vitro.

Sequence of PIM2 (Q9P1W9 whole entry): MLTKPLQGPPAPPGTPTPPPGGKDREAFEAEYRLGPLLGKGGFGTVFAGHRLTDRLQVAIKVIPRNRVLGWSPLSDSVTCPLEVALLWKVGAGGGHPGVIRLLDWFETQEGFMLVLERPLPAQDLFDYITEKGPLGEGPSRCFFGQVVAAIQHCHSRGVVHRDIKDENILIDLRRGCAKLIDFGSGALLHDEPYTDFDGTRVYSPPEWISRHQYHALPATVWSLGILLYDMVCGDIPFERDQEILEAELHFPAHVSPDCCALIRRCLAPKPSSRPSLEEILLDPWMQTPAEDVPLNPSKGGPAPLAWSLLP
Sequence of GSK3β (P49841 whole entry, species assumed): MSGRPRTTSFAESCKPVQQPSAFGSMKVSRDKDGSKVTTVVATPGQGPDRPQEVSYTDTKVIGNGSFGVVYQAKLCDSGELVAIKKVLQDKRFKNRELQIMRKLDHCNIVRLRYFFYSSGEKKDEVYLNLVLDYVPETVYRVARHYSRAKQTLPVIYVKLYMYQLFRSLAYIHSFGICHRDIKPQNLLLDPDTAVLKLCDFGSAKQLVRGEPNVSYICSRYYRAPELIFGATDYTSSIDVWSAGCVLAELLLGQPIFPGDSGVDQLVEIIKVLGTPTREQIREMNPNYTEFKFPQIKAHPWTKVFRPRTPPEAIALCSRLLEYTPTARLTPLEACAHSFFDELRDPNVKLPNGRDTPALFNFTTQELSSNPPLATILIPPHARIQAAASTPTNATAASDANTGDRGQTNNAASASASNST

Turning to `C[C@H]1[C@H](C)O[C@H](c2ccncc2NC(=O)c2ccc(F)c(-c3c(F)cccc3F)n2)C[C@@H]1O` (stereo in doubt) [Example 96, 6-(2,6-difluorophenyl)-5-fluoro-N-(4-((2S,4S,5R,6S)-4-hydroxy-5,6-dimethyltetrahydro-2H-pyran-2-yl)pyridin-3-yl)picolinamide], the IC50 (as a rule, the midpoint of a concentration-inhibition curve) in assay [1] was determined as 0.016 µM; in assay [2] it was 0.003 µM; in assay [3], 0.141 µM; in assay [5], 0.001 µM. Besides, in assay [4], a half-maximal response (EC50) required 3.9 µM.
As to `C[C@H]1[C@H](O)C[C@H](c2ccncc2NC(=O)c2ccc(F)c(-c3c(F)cccc3F)n2)O[C@@H]1C` (stereo in doubt) [Example 97, 6-(2,6-difluorophenyl)-5-fluoro-N-(4-((2R,4R,5S,6R)-4-hydroxy-5,6-dimethyltetrahydro-2H-pyran-2-yl)pyridin-3-yl)picolinamide], the IC50 came to 0.263 µM in assay [1], 0.037 µM in assay [2], 0.313 µM in assay [3] and 0.005 µM in assay [5]. Besides, the EC50 – broadly, the concentration at which the effect is half-maximal – in assay [4] was more than 10 µM.
As to `C[C@H]1O[C@@H](c2ccncc2NC(=O)c2csc(-c3c(F)cccc3F)n2)C[C@@H](O)[C@]1(C)O` (stereo in doubt) [Example 109, 2-(2,6-difluorophenyl)-N-(4-((2R,4R,5S,6R)-4,5-dihydroxy-5,6-dimethyltetrahydro-2H-pyran-2-yl)pyridin-3-yl)thiazole-4-carboxamide], the IC50 was 3.42 µM in assay [1], 0.088 µM in assay [2], 0.272 µM in assay [3] and 0.068 µM in assay [5]. Also, in assay [4], the EC50 is more than 10 µM.
As for `C[C@H]1O[C@@H](c2ccncc2NC(=O)c2ccc(F)c(-c3c(F)cccc3F)n2)C[C@@H](O)[C@]1(C)O` (stereo in doubt) [Example 110, 6-(2,6-difluorophenyl)-N-(4-((2R,4R,5S,6R)-4,5-dihydroxy-5,6-dimethyltetrahydro-2H-pyran-2-yl)pyridin-3-yl)-5-fluoropicolinamide], the IC50 in assay [1] turned out to be 0.347 µM; in assay [2], 0.016 µM; in assay [3], 0.659 µM; in assay [5], 0.019 µM. In assay [4], this molecule showed an EC50 of more than 10 µM.
As to `C[C@@H]1O[C@H](c2ccncc2NC(=O)c2csc(-c3c(F)cccc3F)n2)C[C@H](O)[C@@]1(C)O` (stereo in doubt) [Example 111, 2-(2,6-difluorophenyl)-N-(4-((2S,4S,5R,6S)-4,5-dihydroxy-5,6-dimethyltetrahydro-2H-pyran-2-yl)pyridin-3-yl)thiazole-4-carboxamide], the IC50 in assay [1] stood at 0.043 µM; in assay [2] it was 0.002 µM; in assay [3], 0.026 µM; in assay [5], 0.001 µM. Further, the EC50 in assay [4] was more than 10 µM.
Turning to `C[C@@H]1C[C@H](O)C[C@H](c2ccncc2NC(=O)c2csc(-c3c(F)cccc3F)n2)O1` (stereo in doubt) [Example 125, 2-(2,6-difluorophenyl)-N-(4-((2R,4S,6R)-4-hydroxy-6-methyltetrahydro-2H-pyran-2-yl)pyridin-3-yl)thiazole-4-carboxamide], the IC50 was 2.32 µM in assay [1], 0.165 µM in assay [2], 0.104 µM in assay [3] and 0.01 µM in assay [5]. This molecule had an EC50 in assay [4] of more than 10 µM.
Take `C[C@@H]1C[C@H](O)C[C@H](c2ccncc2NC(=O)c2ccc(F)c(-c3c(F)cccc3F)n2)O1` (stereo in doubt) [Example 126, 6-(2,6-difluorophenyl)-5-fluoro-N-(4-((2R,4S,6R)-4-hydroxy-6-methyltetrahydro-2H-pyran-2-yl)pyridin-3-yl)picolinamide]: the IC50 in assay [1] was 0.213 µM; in assay [2], 0.052 µM; in assay [3] it was 0.548 µM; in assay [5] it was 0.004 µM. Further, the half-maximal effective concentration (EC50) in assay [4] is more than 10 µM.
As for `C[C@@H]1O[C@H](c2ccncc2NC(=O)c2csc(-c3c(F)cccc3F)n2)C[C@H](O)[C@H]1O` (stereo in doubt) [Example 135, 2-(2,6-difluorophenyl)-N-(4-((2S,4S,5R,6S)-4,5-dihydroxy-6-methyltetrahydro-2H-pyran-2-yl)pyridin-3-yl)thiazole-4-carboxamide], the IC50 stood at 0.149 µM in assay [1], 0.007 µM in assay [2], 0.076 µM in assay [3] and 0.001 µM in assay [5]. This molecule also registered an EC50 in assay [4] of more than 10 µM.
With `C[C@H]1O[C@@H](c2ccncc2NC(=O)c2csc(-c3c(F)cccc3F)n2)C[C@@H](O)[C@@H]1O` (stereo in doubt) [Example 136, 2-(2,6-difluorophenyl)-N-(4-((2R,4R,5S,6R)-4,5-dihydroxy-6-methyltetrahydro-2H-pyran-2-yl)pyridin-3-yl)thiazole-4-carboxamide], the half-inhibitory concentration (IC50) in assay [1] was 0.363 µM; in assay [2] it was 0.013 µM; in assay [3], 0.165 µM; in assay [5], 0.018 µM. In assay [4], the EC50 was more than 10 µM.
In the case of `N#Cc1ccc(F)c(-c2nc(C(=O)Nc3cnccc3[C@H]3C[C@@H](O)[C@H](O)[C@@H](CCl)O3)ccc2F)c1F` [Example 1, N-(4-((2R,4R,5S,6S)-6-(chloromethyl)-4,5-dihydroxytetrahydro-2H-pyran-2-yl)pyridin-3-yl)-6-(3-cyano-2,6-difluorophenyl)-5-fluoropicolinamide], the IC50 amounted to 0.005 µM in assay [1], 0.0032 µM in assay [2], 0.033 µM in assay [3] and 0.017 µM in assay [5]. The response in assay [4] was half-maximal at 9.35 µM (EC50).
On to `CC[C@H]1O[C@@H](c2ccncc2NC(=O)c2ccc(F)c(-c3c(F)ccc(C#N)c3F)n2)C[C@@H](O)[C@@H]1O` [Example 2, 6-(3-cyano-2,6-difluorophenyl)-N-(4-((2R,4R,5S,6R)-6-ethyl-4,5-dihydroxytetrahydro-2H-pyran-2-yl)pyridin-3-yl)-5-fluoropicolinamide], for which the IC50 is 0.013 µM in assay [1], 0.0083 µM in assay [2], 0.051 µM in assay [3] and 0.042 µM in assay [5]. Besides, the EC50 in assay [4] was more than 10 µM.
